Experimental findings from ChEMBL document CHEMBL1201862, “PubChem BioAssay data set” (2004) are described below.

Some test systems named below: 786-0; CAKI-1; HCT-15; K562; KM12; MOLT-4; Malme-3M; NCI-H460; NCI-H522; OVCAR-3; PC-3; RXF 393; SF-268; SF-539; SK-MEL-28; SN12C; SNB-19; SW-620; U-251; HOP-92.
Test in all cases: NCI tumour cell line growth inhibition, 48 h

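Following 48 hours of exposure in 96-well plates, responses at five concentrations were used to interpolate endpoints linearly. Abbreviation: GI50, concentration required for 50% inhibition of growth.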 Active and inactive are the calls of the source. Cut-off read from the data, not from the text of the source: active = GI50 up to about 1.1 µM and inactive = higher. Some results are limits rather than exact numbers.

Take `[O-][S+](Nc1ccccc1)c1ccccc1Oc1ccccc1` (stereo not given): the GI50 with 786-0 is 24.7 µM (inactive); in the assay with CAKI-1 it was 39.8 µM (inactive); with HCT-15 it was 27.7 µM; in the assay on K562 it was 48.6 µM (inactive); in the assay with KM12, 18.8 µM (inactive); in the assay on MOLT-4, 19.1 µM (inactive). The GI50 in the assay with Malme-3M is 30.5 µM (inactive); with NCI-H460, 35.3 µM (inactive); with NCI-H522 it was 25 µM (inactive); with OVCAR-3, 92.9 µM (inactive); in the assay on PC-3 it was 39.2 µM (inactive); with RXF 393, 48.2 µM (inactive). Further, the GI50 with SF-268 was 16.3 µM (inactive); in the assay on SF-539 it was 14.6 µM (inactive); with SK-MEL-28, 33.5 µM (inactive); in the assay on SN12C, 86.7 µM (inactive); with SNB-19, 38.9 µM (inactive); in the assay with SW-620 it was > 100 µM (inactive). In addition, the GI50 with U-251 was 22 µM (inactive).
In the case of `COc1c2c(c3c(c1CCC(=O)O)OC(C)(C)C=C3)OC(C)(C)C=C2`, the GI50 in the assay with 786-0 was > 100 µM (inactive); with CAKI-1, > 100 µM (inactive); with HCT-15, above 100 µM; in the assay with K562, 55.8 µM (inactive); with KM12, > 100 µM (inactive); with MOLT-4 it was 65.9 µM (inactive). The GI50 was > 100 µM (inactive) with Malme-3M; 55.1 µM (inactive) in the assay on NCI-H522; 58.7 µM (inactive) in the assay on OVCAR-3; > 100 µM (inactive) in the assay with PC-3; > 100 µM (inactive) in the assay with RXF 393; > 100 µM (inactive) in the assay with SF-268. Besides, the GI50 with SK-MEL-28, in the assay with SN12C, in the assay on SNB-19, with SW-620 and in the assay on U-251 was > 100 µM (inactive) throughout.
With `N#CC(/N=N/c1ccccc1C(=O)O)C(N)=O` (stereo not given), the GI50 is > 100 µM (inactive) in the assay on 786-0; > 100 µM (inactive) with CAKI-1; 68.9 µM in the assay on HCT-15; > 100 µM (inactive) with K562; > 100 µM (inactive) in the assay on KM12; > 100 µM (inactive) in the assay on MOLT-4. Also, the GI50 was 91.2 µM (inactive) in the assay with Malme-3M; > 100 µM (inactive) with NCI-H460; > 100 µM (inactive) in the assay on NCI-H522; > 100 µM (inactive) in the assay on OVCAR-3; > 100 µM (inactive) in the assay on PC-3; > 100 µM (inactive) in the assay with RXF 393. For the same molecule, the GI50 in the assay with SK-MEL-28, in the assay with SN12C, in the assay with SNB-19, in the assay on SW-620 and with U-251 was > 100 µM (inactive) in each case.
Turning to `N#CI1OC(=O)c2ccccc21`, the GI50 with 786-0 was > 100 µM (inactive); in the assay on CAKI-1, 40.7 µM (inactive); in the assay with HCT-15, 37.2 µM; in the assay with K562, 39.8 µM (inactive); in the assay on KM12 it was > 100 µM (inactive); with MOLT-4 it was 92.9 µM (inactive). Also, the GI50 is > 100 µM (inactive) in the assay with NCI-H460; 18.2 µM (inactive) in the assay on NCI-H522; > 100 µM (inactive) with OVCAR-3; > 100 µM (inactive) in the assay with PC-3; > 100 µM (inactive) with RXF 393; > 100 µM (inactive) with SF-268. In addition, the GI50 with SF-539 was > 100 µM (inactive); with SK-MEL-28 it was 92 µM (inactive); with SN12C, > 100 µM (inactive); in the assay on SW-620, > 100 µM (inactive); in the assay on U-251, > 100 µM (inactive).
With `Nc1ccccc1CCN1CCN(CCCc2ccccc2)CC1`, the GI50 in the assay with 786-0 is 31.7 µM (inactive); with CAKI-1, 57.3 µM (inactive); in the assay on HCT-15 it was 33.2 µM; in the assay on K562 it was 27.8 µM (inactive); in the assay on KM12 it was 52.1 µM (inactive); in the assay on MOLT-4, 53.3 µM (inactive). In addition, the GI50 is 14.1 µM (inactive) in the assay on Malme-3M; 41.1 µM (inactive) with NCI-H460; 39.2 µM (inactive) with NCI-H522; > 100 µM (inactive) in the assay with OVCAR-3; 95.9 µM (inactive) in the assay on PC-3; 99.5 µM (inactive) in the assay on SF-268. For the same molecule, the GI50 with SF-539 was 39.2 µM (inactive); in the assay on SK-MEL-28, 97.7 µM (inactive); in the assay on SN12C, 87.7 µM (inactive); in the assay with SNB-19, > 100 µM (inactive); with SW-620, 95.3 µM (inactive); in the assay on U-251 it was > 100 µM (inactive).
Take `CCCNCCCC(NC(C)=O)C(=O)NCc1ccccc1` (stereo not given): the GI50 in the assay on 786-0 was > 100 µM (inactive); in the assay with CAKI-1, > 100 µM (inactive); in the assay with HCT-15 it was above 100 µM; in the assay with HOP-92, > 100 µM (inactive); in the assay with K562, > 100 µM (inactive); with KM12 it was > 100 µM (inactive). Moreover, the GI50 with MOLT-4, in the assay on Malme-3M, with NCI-H460, in the assay on NCI-H522, in the assay with OVCAR-3 and in the assay on RXF 393 was > 100 µM (inactive) in each case. Further, the GI50 with SF-268, in the assay with SF-539, with SK-MEL-28, with SN12C, in the assay with SNB-19 and in the assay on SW-620 was > 100 µM (inactive) throughout. For the same molecule, the GI50 with U-251 was > 100 µM (inactive).
As to `Cn1cc(NC(=O)c2cc(NC(=O)CCCCCCCCCC(=O)Nc3cc(C(=O)Nc4cc(C(=O)NCCC(=N)N)n(C)c4)n(C)c3)cn2C)cc1C(=O)NCCC(=N)N`, the GI50 was 29.4 µM (inactive) with 786-0; 32 µM (inactive) in the assay with CAKI-1; 39.3 µM in the assay with HCT-15; 16.4 µM (inactive) in the assay with HOP-92; 14.3 µM (inactive) with K562; 13.1 µM (inactive) with KM12. Also, the GI50 in the assay on MOLT-4 is 25.1 µM (inactive); in the assay on Malme-3M, 0.971 µM (active); in the assay with NCI-H460, 23.9 µM (inactive); with NCI-H522 it was 11 µM (inactive); in the assay with OVCAR-3, 19.2 µM (inactive); in the assay on RXF 393, 32.1 µM (inactive). The GI50 was 21.8 µM (inactive) with SF-268; 37.9 µM (inactive) in the assay on SF-539; 11.9 µM (inactive) in the assay on SK-MEL-28; 32.2 µM (inactive) in the assay on SN12C; 30.8 µM (inactive) in the assay on SNB-19; 32 µM (inactive) in the assay with SW-620. The GI50 with U-251 was 27.4 µM (inactive).
Regarding `N#C/C(=C\c1ccccc1)C(NO)Nc1ccccc1` (stereo not given), the GI50 in the assay with 786-0 was > 100 µM (inactive); in the assay with CAKI-1, 86.5 µM (inactive); in the assay with HCT-15 it was 79.8 µM; with HOP-92 it was 57.3 µM (inactive); in the assay on K562, 44.7 µM (inactive); in the assay with KM12 it was > 100 µM (inactive). The GI50 in the assay with MOLT-4 was 31.9 µM (inactive); with Malme-3M it was > 100 µM (inactive); in the assay on NCI-H460, > 100 µM (inactive); in the assay on NCI-H522, 35.3 µM (inactive); in the assay on OVCAR-3, 48.2 µM (inactive); with RXF 393, 41.5 µM (inactive). Besides, the GI50 in the assay on SF-268 is 65.3 µM (inactive); in the assay on SF-539, 70.3 µM (inactive); in the assay on SK-MEL-28, > 100 µM (inactive); with SN12C, > 100 µM (inactive); in the assay with SNB-19 it was 60.4 µM (inactive); in the assay with SW-620, 74.8 µM (inactive). Moreover, in the assay with U-251, the GI50 is 30.3 µM (inactive).
